TGI and GI50 data for 13 compounds are collected here from PubChem BioAssay (NCI).

Where “and” joins values, the source holds several entries; their conditions need not be identical. Identical values can stand only once.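 Grown in 96-well plates, cells were treated for 48 hours with each compound at five concentrations. Insufficient inhibition: endpoint recorded as highest concentration tested. At the GI50, growth is halved. TGI denotes the concentration required for complete inhibition of growth.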

One may read the TGI as the concentration giving total growth inhibition. The term GI50 denotes the concentration giving 50% growth inhibition.

Among the test systems are ACHN renal; HCC-2998 colon; HCT-116 colon; HL-60(TB) leukemia; IGROV1 ovarian; SF-295 CNS; UACC-62 melanoma; UO-31 renal; PC-3 prostate; T-47D breast.
Holding throughout (experiment): DTP human tumour cell line panel, 48 h

Take `O/N=C1/CCCC/C1=C\c1ccc(Cl)c(Cl)c1`: the TGI in the assay with ACHN renal is 71.8 µM; in the assay on HCC-2998 colon, 75.3 µM; in the assay with HCT-116 colon it was 35.8 µM; in the assay with HL-60(TB) leukemia, 23 µM; in the assay on IGROV1 ovarian, more than 100 µM; with SF-295 CNS, more than 100 µM. For the same compound, the TGI in the assay on UACC-62 melanoma was more than 100 µM; with UO-31 renal, 46.2 µM.
Consider `CCOc1ccccc1/C=N\N=C(N/N=C/c1ccccc1OCC)N/N=C/c1ccccc1OCC`, for which the GI50 is 1.56 µM in the assay with ACHN renal; 0.826 µM in the assay on HCC-2998 colon; 0.763 µM in the assay with HCT-116 colon; 5.21 µM in the assay on HL-60(TB) leukemia; 3.04 µM with IGROV1 ovarian; 2.06 µM in the assay on PC-3 prostate. Moreover, the GI50 was 2.41 µM in the assay on SF-295 CNS, 2.05 µM in the assay with UACC-62 melanoma and 1.73 µM in the assay with UO-31 renal. The TGI with ACHN renal, in the assay on HCC-2998 colon, with HCT-116 colon, in the assay on HL-60(TB) leukemia, in the assay with IGROV1 ovarian and with PC-3 prostate was more than 100 µM in each case. The TGI in the assay on SF-295 CNS, in the assay on UACC-62 melanoma and in the assay on UO-31 renal was more than 100 µM in each case.
On to `O=CN/C=C/c1ccccc1`, for which the TGI with ACHN renal, in the assay on HCC-2998 colon, with HCT-116 colon, in the assay on HL-60(TB) leukemia, in the assay with IGROV1 ovarian and with PC-3 prostate was more than 100 µM throughout. The TGI in the assay with SF-295 CNS, with UACC-62 melanoma and in the assay on UO-31 renal was more than 100 µM in each case.
Turning to `C[C@@H]1CC[C@@]2(C)OC(c3ccccc3)[C@H](CO)N2C1=O` (some centres undefined), the TGI in the assay with ACHN renal, with HCT-116 colon, in the assay on IGROV1 ovarian, in the assay on SF-295 CNS and with UACC-62 melanoma was more than 100 µM each time.
For `O=S1Nc2cccc(C(F)(F)F)c2S1` (centres undefined), the TGI was more than 100 µM in the assay on ACHN renal; 64.4 µM with HCC-2998 colon; more than 100 µM in the assay with HCT-116 colon; 31.8 µM in the assay on HL-60(TB) leukemia; more than 100 µM with IGROV1 ovarian; more than 100 µM with SF-295 CNS. Besides, the TGI in the assay on UACC-62 melanoma and with UO-31 renal was more than 100 µM each time.
With `Cc1nc2ccccc2c(=O)n1/N=C(\N=Nc1ccccc1)c1ccccc1Cl`, the TGI in the assay with ACHN renal, with HCC-2998 colon, with HL-60(TB) leukemia, with IGROV1 ovarian, in the assay with SF-295 CNS and in the assay on UACC-62 melanoma was more than 100 µM throughout. The TGI in the assay with UO-31 renal is more than 100 µM.
For the compound `CCOC(=O)C1CC(=O)C=C2CCCCC21` (centres undefined), the TGI in the assay on ACHN renal, in the assay with HCC-2998 colon, in the assay with HCT-116 colon, in the assay on HL-60(TB) leukemia, with IGROV1 ovarian and in the assay on SF-295 CNS was more than 100 µM each time. Further, the concentration for total growth inhibition (TGI) with UACC-62 melanoma and with UO-31 renal was more than 100 µM in each case.
With `CC[C@]12CN3CCc4c([nH]c5ccccc45)[C@@](C(=O)OC)(c4cc5c(cc4OC)N(C)[C@H]4[C@@](O)(C(=O)OC)[C@H](OC(C)=O)[C@]6(CC)C=CCN7CC[C@]54[C@@H]76)CC(C3)[C@H]1O2` (some centres undefined), the GI50 with ACHN renal was 2.14 µM; in the assay on HCC-2998 colon it was 0.226 µM; in the assay on HCT-116 colon, 0.147 µM; in the assay on HL-60(TB) leukemia, 0.088 µM; in the assay on IGROV1 ovarian, 0.154 µM; in the assay with PC-3 prostate it was 0.222 µM. In addition, the GI50 is 0.224 µM in the assay with UACC-62 melanoma and 1.83 µM in the assay with UO-31 renal. Besides, the TGI is more than 100 µM in the assay on ACHN renal; more than 100 µM in the assay on HCT-116 colon; more than 100 µM in the assay on IGROV1 ovarian; more than 100 µM with PC-3 prostate; more than 12.3 µM in the assay with SF-295 CNS; 76.9 µM and > 50 µM in the assay with UACC-62 melanoma. In the assay with UO-31 renal, the TGI is more than 88.5 µM.
As for `O=C1CCCc2ccc([N+](=O)[O-])c(O)c21`, the TGI in the assay on ACHN renal, in the assay on HCC-2998 colon, with HCT-116 colon, with HL-60(TB) leukemia, in the assay with IGROV1 ovarian and in the assay with SF-295 CNS was more than 100 µM throughout. The total growth inhibition concentration (TGI) in the assay on UACC-62 melanoma and in the assay with UO-31 renal was more than 100 µM each time.
For `CC1OC(n2cc(F)c(=O)[nH]c2=O)CCC1=O` (centres undefined), the TGI with ACHN renal, with HCC-2998 colon, in the assay on HCT-116 colon, in the assay with HL-60(TB) leukemia, in the assay on IGROV1 ovarian and in the assay on SF-295 CNS was more than 100 µM each time. Moreover, the TGI with UACC-62 melanoma and with UO-31 renal was more than 100 µM in each case.
Consider `C[C@]12Cc3conc3C(O)=C1CC[C@@H]1C2CC[C@@]2(C)C1CC[C@@H]2O` (some centres undefined), for which the TGI was more than 100 µM in the assay on ACHN renal; 10.7 µM in the assay on HL-60(TB) leukemia; more than 100 µM in the assay on IGROV1 ovarian; 88.3 µM in the assay with SF-295 CNS; 54.6 µM in the assay with UACC-62 melanoma; 53.3 µM in the assay on UO-31 renal.
Take `COC(=O)c1c2c(c(C)[n+]([O-])c1C)C(=O)C(NCc1ccccc1)=CC2=O`: the GI50 in the assay with ACHN renal was 2.73 µM; in the assay on HCC-2998 colon, 2.8 µM; with HCT-116 colon, 2.47 µM; in the assay on IGROV1 ovarian, 1.71 µM; in the assay with SF-295 CNS, 2.6 µM; in the assay on T-47D breast it was 1.88 µM. Further, the GI50 in the assay on UACC-62 melanoma was 1.8 µM; with UO-31 renal, 2.9 µM. In addition, the TGI in the assay with ACHN renal worked out at 10.1 µM; with HCC-2998 colon, 7.98 µM; in the assay with HCT-116 colon it was 9.48 µM; in the assay with IGROV1 ovarian, 4.42 µM; in the assay with SF-295 CNS, 7.5 µM; in the assay on T-47D breast, 5.35 µM. In addition, the TGI with UACC-62 melanoma turned out to be 3.56 µM; in the assay with UO-31 renal it was 10.1 µM.
For `COc1ccc(Nc2ncc(I)c(NCCCNC(=O)C3CCC3)n2)cc1`, the GI50 in the assay on ACHN renal was 3.65 µM; in the assay with HCC-2998 colon it was 13.5 µM; with HCT-116 colon, 4.01 µM; in the assay on HL-60(TB) leukemia it was 3.47 µM; with IGROV1 ovarian it was 2.39 µM; with SF-295 CNS it was 3.5 µM. Moreover, the GI50 with T-47D breast was 28.4 µM; in the assay with UACC-62 melanoma, 17.2 µM; with UO-31 renal, 0.73 µM. The TGI was more than 100 µM in the assay with ACHN renal; 67.3 µM with HCC-2998 colon; 20.6 µM in the assay with HCT-116 colon; 14.7 µM in the assay with HL-60(TB) leukemia; 16.6 µM in the assay with IGROV1 ovarian; more than 100 µM in the assay with SF-295 CNS. Moreover, the TGI with T-47D breast was found to be 79 µM; in the assay on UACC-62 melanoma it was 43.2 µM; in the assay with UO-31 renal, 3.85 µM.
